Reference: ChEMBL document CHEMBL5653615 (J Biol Chem, 2013)

Experiments:
[1] = target: Cyclin-dependent kinase 4/cyclin D1 (Homo sapiens) (UniProt P11802+P24385); experiment: Inhibition of human CDK4/cyclin D1 at 18.6 nM by HotSpot assay relative to control; assay type: protein-complex assay
[2] = target: T1, Aurora kinase C (Homo sapiens) (UniProt Q9UQB9); experiment: Inhibition of human Aurora C at 18.6 nM by HotSpot assay relative to control
T1 sequence (whole entry): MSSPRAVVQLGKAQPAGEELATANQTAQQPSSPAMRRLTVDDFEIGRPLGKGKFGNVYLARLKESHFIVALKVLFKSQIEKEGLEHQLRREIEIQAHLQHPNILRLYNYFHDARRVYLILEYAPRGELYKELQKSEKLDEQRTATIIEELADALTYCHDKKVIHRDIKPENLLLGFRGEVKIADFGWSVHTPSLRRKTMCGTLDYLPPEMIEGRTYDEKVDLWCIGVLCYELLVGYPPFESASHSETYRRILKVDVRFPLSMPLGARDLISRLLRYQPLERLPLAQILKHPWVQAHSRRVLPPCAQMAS

[3] = target: T2, cGMP-dependent protein kinase 1 (Homo sapiens) (UniProt Q13976); experiment: Inhibition of human PKG1a at 18.6 nM by HotSpot assay relative to control
T2 sequence (whole entry): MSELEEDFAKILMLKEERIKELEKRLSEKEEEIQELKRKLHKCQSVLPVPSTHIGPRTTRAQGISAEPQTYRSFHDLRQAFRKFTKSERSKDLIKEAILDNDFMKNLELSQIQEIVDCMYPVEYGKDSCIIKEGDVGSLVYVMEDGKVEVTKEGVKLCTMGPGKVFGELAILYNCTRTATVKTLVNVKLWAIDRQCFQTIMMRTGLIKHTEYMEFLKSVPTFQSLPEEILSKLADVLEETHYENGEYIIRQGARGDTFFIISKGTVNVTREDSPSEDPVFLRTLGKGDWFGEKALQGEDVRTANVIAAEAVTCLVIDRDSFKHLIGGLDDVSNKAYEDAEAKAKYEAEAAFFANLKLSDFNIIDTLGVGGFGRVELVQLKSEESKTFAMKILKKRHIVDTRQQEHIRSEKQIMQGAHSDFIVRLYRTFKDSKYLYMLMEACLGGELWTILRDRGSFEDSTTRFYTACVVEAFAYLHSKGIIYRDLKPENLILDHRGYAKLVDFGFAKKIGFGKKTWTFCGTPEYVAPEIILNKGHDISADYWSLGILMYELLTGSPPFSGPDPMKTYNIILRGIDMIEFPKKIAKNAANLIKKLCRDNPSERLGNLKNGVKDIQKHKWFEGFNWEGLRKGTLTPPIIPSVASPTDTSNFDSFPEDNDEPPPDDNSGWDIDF

[4] = target: T3, Ephrin type-B receptor 1 (Homo sapiens) (UniProt P54762); experiment: Inhibition of human EPHB1 at 1.82 nM by HotSpot assay relative to control
T3 sequence (whole entry): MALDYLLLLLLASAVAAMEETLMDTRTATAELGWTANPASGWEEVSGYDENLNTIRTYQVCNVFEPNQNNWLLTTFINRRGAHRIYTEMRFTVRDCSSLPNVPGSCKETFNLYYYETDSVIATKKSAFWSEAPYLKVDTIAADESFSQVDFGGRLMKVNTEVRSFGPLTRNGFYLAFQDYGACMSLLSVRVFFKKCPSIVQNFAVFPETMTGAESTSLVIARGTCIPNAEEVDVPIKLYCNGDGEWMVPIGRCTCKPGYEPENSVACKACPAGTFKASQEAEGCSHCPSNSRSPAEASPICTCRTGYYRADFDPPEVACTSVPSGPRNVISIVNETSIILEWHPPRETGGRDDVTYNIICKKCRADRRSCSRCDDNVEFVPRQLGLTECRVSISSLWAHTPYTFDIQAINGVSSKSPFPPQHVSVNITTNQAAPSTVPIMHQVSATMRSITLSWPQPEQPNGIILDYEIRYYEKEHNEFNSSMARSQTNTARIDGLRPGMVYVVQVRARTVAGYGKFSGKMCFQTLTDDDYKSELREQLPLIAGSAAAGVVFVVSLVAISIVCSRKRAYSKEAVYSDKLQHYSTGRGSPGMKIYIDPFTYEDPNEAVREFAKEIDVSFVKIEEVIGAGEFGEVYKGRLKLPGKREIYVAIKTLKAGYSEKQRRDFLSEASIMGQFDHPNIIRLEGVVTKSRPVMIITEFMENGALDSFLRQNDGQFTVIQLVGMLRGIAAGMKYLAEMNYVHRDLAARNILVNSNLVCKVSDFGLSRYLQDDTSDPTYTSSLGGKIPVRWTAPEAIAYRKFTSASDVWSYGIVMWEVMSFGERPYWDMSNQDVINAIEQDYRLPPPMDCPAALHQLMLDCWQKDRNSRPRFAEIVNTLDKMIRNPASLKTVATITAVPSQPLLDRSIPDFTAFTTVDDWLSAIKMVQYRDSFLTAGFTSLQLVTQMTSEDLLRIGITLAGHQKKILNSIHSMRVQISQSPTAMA

inhibition [1] [%] | inhibition [2] [%] | inhibition [3] [%] | inhibition [4] [%] | SMILES
-1.49 | -7.85 | 5.49 |  | C[C@]1(O)C[C@@H](c2nc(-c3ccc4ccc(-c5ccccc5)nc4c3)c3c(N)nccn32)C1
 |  |  | 2.28 | C[C@@]1(C(=O)Nc2ccc(F)nc2)CCCN1c1nc(Nc2cc(C3CC3)n[nH]2)c2cccn2n1
